Experimental data published in patent publication EP2402030A1, “Linear IgE peptide epitopes of celery allergen api 1” (Charité Universitätsmedizin Berlin, priority 2010, dated 2012).

Tested on: human IgE antibodies
Assay: Human IgE antibody binding to SPOT-synthesized 12-meric Api g 1.0101 peptide arrays on N-CAPE cellulose membranes, probed with sera, HRP-labeled anti-human IgE, chemiluminescence
Settings: for celery allergic individuals responding to the peptide (positive IgE antibody binding spot) / number of celery allergic patients whose sera IgE antibodies bind the sequence / recognition by sera of celery allergic patients: sera of 21 celery allergic patients; for celery allergic individuals responding to the peptide (positive IgE antibody binding spot) / IgE binding in sera of healthy controls / recognition by sera of celery allergic patients: diluted 1:5; for celery allergic individuals responding to the peptide (positive IgE antibody binding spot): positive if SInorm above the membrane's cut off value; for IgE binding in sera of healthy controls: sera of 17 healthy subjects
Source text: The protein sequence of the major allergen in celery Api g 1.0101 (UniprotKB/Swissprot entry P49372) was dissected into sets of overlapping peptides (pepscan). Subsequently, these sequences were synthesized as peptide arrays on cellulose membranes according to SPOT technology. A highly specific secondary anti-human IgE antibody with minimum cross-reactivity towards cellulose membrane-bound peptides was employed.
Synthetic arrays were probed with sera randomly chosen from a well described cohort of subjects, including 21 patients with a defined allergic reaction to celery and 17 healthy individuals. Captured human IgE antibodies were detected by a HRP-labeled secondary antibody and binding was visualized by chemiluminescence.
The optimal conditions for screening the sera of 21 celery allergic patients and 17 healthy controls were as follows: (i) replica of a 12-meric pepscan with a shift of three amino acids covering the Api g 1.0101 sequence synthesized on high-loaded N-CAPE membranes (640 nmol/cm2 - 760 nmol/cm2); (ii) prior to treatment with sera, membranes were blocked with the Sigma-Genosys blocking buffer for 2 h at room temperature; (iii) arrays were probed for 16 h at 4°C with diluted sera (1:5) for IgE antibody binding; (iv) the captured human IgE antibodies were detected with the HRP-labeled anti-human IgE antibody (A 9667, Sigma-Aldrich) and visualized by chemiluminescence; (v) spot signal intensities were measured on a LumiImager and processed with the LumiAnalyst software. To check the reproducibility of our screening procedure, three different peptide arrays were incubated and evaluated for each person (allergic and healthy).
Sera binding patterns could be reproduced in repeated incubation experiments. Although inter-membrane absolute spot signal intensities differed, the relative differences between spot signal intensities were nearly the same. This enabled comparison of spot signal intensities from different membranes by applying an additional normalization procedure. We defined an IgE antibody binding spot as positive if its normalized signal intensity (SInorm) was higher than the calculated cut off value of the appropriate membrane.
Human IgE antibody binding studies: The spotted peptide arrays were prewashed with ethanol (1 × 10 min), washed with Tris-buffered saline (TBS), pH 8.0 (3 × 10 min), and blocked for 2 h at room temperature with blocking buffer. The membranes were incubated with the patients' sera (dilution 1:5) in blocking buffer overnight at 4°C, washed with TBS, followed by a second incubation with anti-human IgE antibody (ε-chain specific) conjugated with horse radish peroxidase (HRP) (A 9667, Sigma-Aldrich, St. Louis, USA) in blocking buffer for 2 h at room temperature. To remove excess antibody the membrane was washed with TBS (3x10 min). Detection was performed with Uptilight HRP blot chemiluminescent substrate (Uptima, Interchim, Montiuçon Cedex, France) with an exposure time of 2 min. The signal intensities were recorded as Biomedical Light Units (BLU) by a Lumi Imager™ (Boehringer Mannheim GmbH, Mannheim, Germany) using the LumiAnalyst software.
Measurement of spot signal intensities: Analysis and measurement of spot signal intensities were executed with the LumiAnalyst software, version 3.1 (Boehringer Mannheim GmbH, Mannheim, Germany). The spot signal was calculated from a circular region around the spot center detected on the image. To guarantee uniform spot signal assessment, and reduce signal variations caused by the background, we choose the background correction method in the LumiAnalyst software. This method allows local background correction when calculating the BLU of each spot. The background values of each spot were determined from BLU values around the spot with a safety margin and normalized to the area of the spot. Comparing replicas of several membranes, incubated under identical conditions, we found signal intensity deviations of a factor of 11. […]

Row | Sequence | celery allergic individuals responding to the peptide (positive IgE antibody binding spot) [%] | IgE binding in sera of healthy controls | number of celery allergic patients whose sera IgE antibodies bind the sequence | further results
1 | GDGGPGTLKIIT [compound 16, 12-meric peptide of Api g 1.0101] | 38 |  |  | 
2 | GGPITTMTLRID [compound 21, 12-meric peptide of Api g 1.0101] | 29 |  |  | 
3 | IFQGFVIDVDTV [peptide 7, 12-meric peptide of Api g 1.0101] | 38 | not reacting with any sera IgE antibody from healthy subjects | at least six | 
4 | IITLPDGGPITT [compound 19, 12-meric peptide of Api g 1.0101] | 29 |  |  | 
5 | NHVVLVPTADGG [peptide 34, 12-meric peptide located in the C-terminal region of Api g 1.0101] | 29 | not reacting with any sera IgE antibody from healthy subjects | at least six | 
6 | PTADGGSICKTT [compound 36, 12-meric peptide of Api g 1.0101] | 43 |  |  | 
7 | VLVPTADGGSIC [peptide 35, 12-meric peptide of Api g 1.0101] | 100 | not reacting with any sera IgE antibody from healthy subjects | at least six | spot signal intensity (average spot signal intensity, Fig. 3): highest measured spot signal intensity; IgE binding in sera of healthy controls (listed as VLVPTADGGSIC): no binding; recognition by sera of celery allergic patients: recognized by the sera from all the celery allergic patients; recognition by sera of celery allergic patients (listed as VLVPTADGGSIC): recognized by all sera of celery allergic patients
